The values below are quoted from earlier work in patent publication US20230226006A1, “Compositions for the Treatment of Dry Eye and Methods of Use Thereof” (The Schepens Eye Research Institute, Inc., priority 2017, published 2023).

For `C=CCN=C=S` [Allyl isothiocyanate, 3-Isothiocyanato-1-propene], the “Solubility in organic solvents” value (organic solvents) is listed as “well soluble”. Moreover, the Solubility in water entry (water) is “slightly soluble”.
